Reference: PMC8524858, “Dual inhibition of αvβ6 and αvβ1 reduces fibrogenesis in lung tissue explants from patients with IPF” (Respiratory Research, 2021)

How the values were obtained:
[1] = biological target: T1, human integrin αvβ5 (Homo sapiens, UniProt P06756+P18084); experiment: Integrin ligand-binding assay, αvβ5 (vitronectin ligand)
T1 construct: purchased R&D Systems 2528-AV
Experimental: (§1) Integrin ligand-binding assays were performed similar to that previously described.
(§2) Microplates were coated with recombinant human integrins dissolved in PBS (2 µg/ml, overnight at room temperature). Following removal of the coating solution, plates were washed with PBS. Plates were blocked with 200 µL/well of blocking buffer (2% bovine serum albumin [BSA] in PBS) at 37 °C for 1 h. […] Plates were incubated for 2 h at 25 °C, washed, and incubated for 1 h with biotin-labeled anti-fibronectin or anti-LAP antibodies (for αvβ1 or αvβ6/αvβ8, respectively).

[2] = biological target: T2, human integrin αvβ3 (Homo sapiens, UniProt P05106+P06756); experiment: Integrin ligand-binding assay, αvβ3 (vitronectin ligand)
T2 construct: purchased R&D Systems 3050-AV
T2 sequence (P06756 31-992 limits assumed): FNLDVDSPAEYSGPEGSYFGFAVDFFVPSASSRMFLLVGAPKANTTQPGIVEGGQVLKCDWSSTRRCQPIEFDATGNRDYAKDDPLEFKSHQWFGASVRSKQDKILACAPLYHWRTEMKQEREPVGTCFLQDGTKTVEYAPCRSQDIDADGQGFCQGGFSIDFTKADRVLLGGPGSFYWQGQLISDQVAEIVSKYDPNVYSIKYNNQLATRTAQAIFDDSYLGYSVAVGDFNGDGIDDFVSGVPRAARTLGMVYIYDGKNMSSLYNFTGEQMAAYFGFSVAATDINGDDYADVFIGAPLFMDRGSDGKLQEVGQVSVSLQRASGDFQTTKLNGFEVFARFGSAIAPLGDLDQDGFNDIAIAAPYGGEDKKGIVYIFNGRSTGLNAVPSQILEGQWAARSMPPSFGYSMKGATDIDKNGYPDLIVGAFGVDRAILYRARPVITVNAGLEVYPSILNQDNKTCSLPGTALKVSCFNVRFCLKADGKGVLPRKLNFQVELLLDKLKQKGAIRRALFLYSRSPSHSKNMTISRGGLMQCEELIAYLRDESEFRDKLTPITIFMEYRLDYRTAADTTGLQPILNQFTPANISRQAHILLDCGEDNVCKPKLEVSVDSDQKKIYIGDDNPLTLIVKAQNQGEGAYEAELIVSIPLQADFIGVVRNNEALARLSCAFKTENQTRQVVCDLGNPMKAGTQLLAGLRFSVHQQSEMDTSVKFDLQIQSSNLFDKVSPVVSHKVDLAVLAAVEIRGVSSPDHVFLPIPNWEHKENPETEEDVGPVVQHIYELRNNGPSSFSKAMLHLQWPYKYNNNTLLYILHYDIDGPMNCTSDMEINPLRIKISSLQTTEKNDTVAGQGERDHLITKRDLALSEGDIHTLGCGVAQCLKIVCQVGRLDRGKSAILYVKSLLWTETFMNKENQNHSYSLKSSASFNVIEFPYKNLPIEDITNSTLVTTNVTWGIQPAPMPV
T2 sequence (P05106 27-718 limits assumed): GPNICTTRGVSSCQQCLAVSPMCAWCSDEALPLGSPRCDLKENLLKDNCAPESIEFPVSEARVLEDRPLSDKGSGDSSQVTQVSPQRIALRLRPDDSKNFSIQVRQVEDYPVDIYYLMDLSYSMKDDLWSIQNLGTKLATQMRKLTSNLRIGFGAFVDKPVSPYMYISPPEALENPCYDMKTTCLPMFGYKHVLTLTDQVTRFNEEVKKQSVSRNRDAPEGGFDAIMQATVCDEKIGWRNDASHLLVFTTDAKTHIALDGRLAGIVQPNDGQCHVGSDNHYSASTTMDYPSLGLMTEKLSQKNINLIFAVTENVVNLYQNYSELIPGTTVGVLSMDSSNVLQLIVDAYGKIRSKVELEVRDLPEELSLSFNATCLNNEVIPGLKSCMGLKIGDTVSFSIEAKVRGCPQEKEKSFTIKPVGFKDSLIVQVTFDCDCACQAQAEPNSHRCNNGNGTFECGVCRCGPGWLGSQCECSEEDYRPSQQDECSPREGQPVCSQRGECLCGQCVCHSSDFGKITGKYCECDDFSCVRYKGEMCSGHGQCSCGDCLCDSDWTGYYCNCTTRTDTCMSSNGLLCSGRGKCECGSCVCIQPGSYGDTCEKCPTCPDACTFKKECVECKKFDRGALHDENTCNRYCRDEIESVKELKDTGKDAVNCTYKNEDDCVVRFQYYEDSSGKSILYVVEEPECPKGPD
Experimental: as §1, §2

[3] = biological target: T3, human integrin αvβ8 (Homo sapiens, UniProt P06756+P26012); experiment: Integrin ligand-binding assay, αvβ8 (LAP ligand)
T3 construct: purchased R&D Systems 4135-AV
Experimental: as §1, §2

[4] = biological target: T4, αvβ6-induced TGF-β activation (Homo sapiens, UniProt P06756+P18564); experiment: TGF-β co-culture assay, SW-β6 cells with MLEC luciferase reporter cells; type: cell-based; settings: integrin αvβ6
T4 construct: expressed in transfected cells; host or cells: SW480 cells stably transfected with β6 (SW-β6), co-cultured with MLEC reporter cells
T4 sequence (P06756 31-1048): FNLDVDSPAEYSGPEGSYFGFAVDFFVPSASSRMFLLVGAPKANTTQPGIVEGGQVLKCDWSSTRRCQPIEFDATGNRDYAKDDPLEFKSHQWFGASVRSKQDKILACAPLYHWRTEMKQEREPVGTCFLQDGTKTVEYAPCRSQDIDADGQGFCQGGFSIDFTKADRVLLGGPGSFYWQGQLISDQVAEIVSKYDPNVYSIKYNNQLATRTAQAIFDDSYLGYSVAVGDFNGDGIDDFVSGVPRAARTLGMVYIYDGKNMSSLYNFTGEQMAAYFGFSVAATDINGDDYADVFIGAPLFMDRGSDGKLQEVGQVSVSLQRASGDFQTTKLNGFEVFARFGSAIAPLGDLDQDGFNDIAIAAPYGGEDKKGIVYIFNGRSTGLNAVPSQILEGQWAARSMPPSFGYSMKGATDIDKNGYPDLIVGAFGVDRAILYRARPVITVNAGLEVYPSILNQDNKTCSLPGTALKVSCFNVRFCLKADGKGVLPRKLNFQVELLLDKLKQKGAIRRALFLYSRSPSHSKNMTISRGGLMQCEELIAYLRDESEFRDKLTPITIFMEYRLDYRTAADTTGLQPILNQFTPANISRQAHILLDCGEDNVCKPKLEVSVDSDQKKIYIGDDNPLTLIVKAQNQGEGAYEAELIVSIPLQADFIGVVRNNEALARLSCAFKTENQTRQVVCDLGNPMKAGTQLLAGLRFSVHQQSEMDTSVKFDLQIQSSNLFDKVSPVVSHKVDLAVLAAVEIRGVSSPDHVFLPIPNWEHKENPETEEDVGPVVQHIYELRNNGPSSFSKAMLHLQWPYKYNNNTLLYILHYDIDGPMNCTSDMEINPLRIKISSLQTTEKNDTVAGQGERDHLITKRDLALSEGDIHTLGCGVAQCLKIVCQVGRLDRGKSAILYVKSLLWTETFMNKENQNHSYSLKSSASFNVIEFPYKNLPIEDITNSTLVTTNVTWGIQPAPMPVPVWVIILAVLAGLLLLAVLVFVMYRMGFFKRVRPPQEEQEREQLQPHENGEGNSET
T4 sequence (P18564 22-788): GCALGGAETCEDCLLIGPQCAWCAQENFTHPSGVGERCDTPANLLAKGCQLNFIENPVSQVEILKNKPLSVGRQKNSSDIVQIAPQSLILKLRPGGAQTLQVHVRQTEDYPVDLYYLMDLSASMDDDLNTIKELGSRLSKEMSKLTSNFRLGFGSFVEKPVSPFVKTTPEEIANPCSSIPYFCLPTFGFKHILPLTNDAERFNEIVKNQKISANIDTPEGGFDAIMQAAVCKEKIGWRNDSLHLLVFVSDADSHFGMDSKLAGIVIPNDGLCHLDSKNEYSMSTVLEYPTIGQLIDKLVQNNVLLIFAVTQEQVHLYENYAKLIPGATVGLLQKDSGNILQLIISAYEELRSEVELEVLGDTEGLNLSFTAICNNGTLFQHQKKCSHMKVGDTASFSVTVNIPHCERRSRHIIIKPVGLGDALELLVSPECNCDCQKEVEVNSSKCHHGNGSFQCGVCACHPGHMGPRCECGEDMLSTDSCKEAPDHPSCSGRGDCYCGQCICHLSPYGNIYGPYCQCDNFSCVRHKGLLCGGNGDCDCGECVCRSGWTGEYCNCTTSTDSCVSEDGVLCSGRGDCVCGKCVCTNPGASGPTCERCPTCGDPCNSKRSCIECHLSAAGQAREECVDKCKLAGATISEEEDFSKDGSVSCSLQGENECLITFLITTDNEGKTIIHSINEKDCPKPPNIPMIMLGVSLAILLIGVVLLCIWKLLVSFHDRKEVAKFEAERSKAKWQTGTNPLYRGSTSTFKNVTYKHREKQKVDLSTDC
Experimental: (§3) SW-β6 cells and MLECs or CHO-αv cells and MLECs were cultured in 96-well plates with test compounds or antibodies for 20 h at 37 °C in a 5% CO2 incubator. […] Measurement of MLEC luciferase production resulting from αvβ6- or αvβ1-mediated TGF-β activation was performed using the Bright-Glo Luciferase Assay System (Promega; Madison, WI, USA) according to manufacturer’s instruction. Luminescence was quantified by a Tecan Spark 10M plate reader. IC50 curves were generated using Dotmatics software suite with five-parameter logistic curve fitting. Geometric mean IC50 was calculated for each compound from multiple independent analyses.

[5] = system: αvβ1-induced TGF-β activation; experiment: TGF-β co-culture assay, CHO-αv cells with MLEC luciferase reporter cells; type: cell-based, human; settings: integrin αvβ1
Experimental: as §3

[6] = system: normal human lung fibroblast adhesion to LAP; experiment: Primary cell LAP adhesion assay (cell impedance), normal HLF; type: cell-based; settings: HLFs isolated from normal lung tissue, read-out: IC50 for blocking adhesion to LAP
Experimental: (§4) Adhesion of primary human lung cells to LAP was quantified using the xCELLigence RTCA MP instrument (ACEA Biosciences; San Diego, CA, USA) via cell impedance measurements similar to that previously described.
(§5) Adhesion assays were performed using the xCELLigence RTCA MP instrument (ACEA Biosciences; San Diego, CA, USA) on 96-well PET plates (ACEA Biosciences; 300600910) via a cell impedance measurement similar to one previously described (E6). Plates were coated with LAP (Sino Biological; 10804-H08H1) overnight at 4 °C and blocked with BSA for 2 h at 37 °C. NHLF (40,000 cells/well), dHLF (40,000 cells/well), or NHBE (20,000 cells per well) in FBS-free media were combined with small-molecule integrin inhibitors or antibodies in the plates and incubated at 37 °C with 5% CO2. […] Anti-αv antibody, 17E6, and anti-β1 antibody, P5D2, were tested at a single concentration (10 μg/ml). Cell impedance (cell index) was measured at baseline and every 3 min for up to 24 h using xCELLigence RTCA 2.1.0 Software (ACEA Biosciences). […] Geometric mean IC50 was calculated for each compound following repeat analyses of multiple donor cells.

[7] = system: Smad2 phosphorylation (canonical TGF-β signaling) in IPF PCLSs; experiment: Smad2 phosphorylation in PCLSs from IPF explant tissue; type: cell-based, human; settings: 7 days; n = 3 individual patients (Fig. S1B)
Experimental: Integrin αvβ1 protein levels and Smad phosphorylation levels in tissues or cells were quantified by the Meso Scale Discovery custom electrochemiluminescence assay.
Biotin-labeled antibodies for total Smad2/3, phosphorylated Smad2 (pSmad2), and total Smad2 (Cell Signaling Technology; Danvers, MA, USA), and antibodies for phosphorylated Smad3 (pSmad3) and total Smad3 (Abcam; Cambridge, UK) were utilized for pSmad electrochemiluminescence assays.
pSmad2 and total Smad2 quantitation were performed similarly to that described for pSmad3 and total Smad3 above, with the exception that U-PLEX linker conjugated biotinylated anti-pSmad2 and total Smad2 antibodies were bound to U-PLEX MSD assay plates (MSD; K15227N-2) according to manufacturer’s instruction, followed by unknown sample incubation and addition of sulfo-tag-labeled anti-Smad2/3 antibody.
Human PCLSs were generated from lung tissue explants from patients with IPF undergoing transplant surgery and cultured based on previously reported methods (E7-E12). Slices of tissue (400 µm) were cut using a Compresstome VF-300-0Z (Precisionary Instruments; Natick, MA, USA).

[8] = biological target: T5, human integrin αvβ6 (Homo sapiens, UniProt P06756+P18564); experiment: Integrin ligand-binding assay, αvβ6 (LAP ligand)
T5 construct: purchased ACROBiosystems or R&D Systems IT6-H52E1 or 3817-AV
T5 sequence (P06756 31-992 limits assumed): as the sequence (P06756 31-992 limits assumed) above
T5 sequence (P18564 22-707 limits assumed): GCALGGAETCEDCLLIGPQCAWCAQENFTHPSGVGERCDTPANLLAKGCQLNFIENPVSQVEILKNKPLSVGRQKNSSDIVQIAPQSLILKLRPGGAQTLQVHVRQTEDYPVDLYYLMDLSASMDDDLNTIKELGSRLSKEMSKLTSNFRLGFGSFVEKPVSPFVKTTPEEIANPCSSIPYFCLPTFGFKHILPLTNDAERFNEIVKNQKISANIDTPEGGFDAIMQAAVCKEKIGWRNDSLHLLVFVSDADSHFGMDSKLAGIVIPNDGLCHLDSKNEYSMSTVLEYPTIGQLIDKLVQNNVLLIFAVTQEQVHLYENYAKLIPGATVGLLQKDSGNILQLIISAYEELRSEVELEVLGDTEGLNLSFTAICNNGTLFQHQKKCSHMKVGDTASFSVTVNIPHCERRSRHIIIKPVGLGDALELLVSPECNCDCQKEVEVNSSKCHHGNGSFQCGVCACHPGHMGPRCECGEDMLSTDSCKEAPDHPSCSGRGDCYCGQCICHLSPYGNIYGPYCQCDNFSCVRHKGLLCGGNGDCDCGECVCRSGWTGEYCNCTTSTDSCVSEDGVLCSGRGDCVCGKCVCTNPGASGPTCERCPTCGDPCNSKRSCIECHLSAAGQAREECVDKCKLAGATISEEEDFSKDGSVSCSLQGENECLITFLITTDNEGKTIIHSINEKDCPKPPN
Experimental: as §1, §2

[9] = system: IPF lung fibroblast adhesion to LAP; experiment: Primary cell LAP adhesion assay (cell impedance), IPF HLF; type: cell-based; settings: Homo sapiens, HLFs isolated from fibrotic (IPF) lung tissue, read-out: IC50 for blocking adhesion to LAP
Experimental: as §4, §5

[10] = system: other αv integrins; experiment: Human integrin ligand-binding assays, selectivity over the panel
Experimental: as §1
Microplates were coated with recombinant human integrins dissolved in PBS (2 µg/ml, overnight at room temperature). Following removal of the coating solution, plates were washed with PBS. Plates were blocked with 200 µL/well of blocking buffer (2% bovine serum albumin [BSA] in PBS) at 37 °C for 1 h. Serial dilutions of test compounds and 2 µg/ml of recombinant ligands were added: fibronectin (R&D Systems #1918-Fn) for integrin αvβ1, LAP (Sino Biological #10804-H08H1; Beijing, China) for integrins αvβ6 and αvβ8, or biotin-tagged vitronectin (Molecular Innovations, Inc. #HVNUBIO) for integrins αvβ3 and αvβ5 in binding/wash buffer (50 mM Tris-HCl, pH 7.5; 0.1% BSA, NaCl 150 mM; 0.02% Tween-20; 1 mM CaCl2; 1 mM MnCl2; 1 mM MgCl2). Plates were incubated for 2 h at 25 °C, washed, and incubated for 1 h with biotin-labeled anti-fibronectin or anti-LAP antibodies (for αvβ1 or αvβ6/αvβ8, respectively). After washing, bound antibody was incubated with peroxidase-conjugated streptavidin (Thermo Fisher #21134; 1:2000 dilution) for 30 minutes (min) at room temperature. Following an additional washing step, 100 μL TMB substrate (BD Biosciences #555214; San Jose, CA, USA) was added and integrin binding was quantified by measuring absorbance at 450 nm by a Tecan Spark 10M plate reader (Tecan; Männedorf, Switzerland).

T1 sequence (P06756 31-992 limits assumed): as the sequence (P06756 31-992 limits assumed) above
T1 sequence (P18084 24-719 limits assumed): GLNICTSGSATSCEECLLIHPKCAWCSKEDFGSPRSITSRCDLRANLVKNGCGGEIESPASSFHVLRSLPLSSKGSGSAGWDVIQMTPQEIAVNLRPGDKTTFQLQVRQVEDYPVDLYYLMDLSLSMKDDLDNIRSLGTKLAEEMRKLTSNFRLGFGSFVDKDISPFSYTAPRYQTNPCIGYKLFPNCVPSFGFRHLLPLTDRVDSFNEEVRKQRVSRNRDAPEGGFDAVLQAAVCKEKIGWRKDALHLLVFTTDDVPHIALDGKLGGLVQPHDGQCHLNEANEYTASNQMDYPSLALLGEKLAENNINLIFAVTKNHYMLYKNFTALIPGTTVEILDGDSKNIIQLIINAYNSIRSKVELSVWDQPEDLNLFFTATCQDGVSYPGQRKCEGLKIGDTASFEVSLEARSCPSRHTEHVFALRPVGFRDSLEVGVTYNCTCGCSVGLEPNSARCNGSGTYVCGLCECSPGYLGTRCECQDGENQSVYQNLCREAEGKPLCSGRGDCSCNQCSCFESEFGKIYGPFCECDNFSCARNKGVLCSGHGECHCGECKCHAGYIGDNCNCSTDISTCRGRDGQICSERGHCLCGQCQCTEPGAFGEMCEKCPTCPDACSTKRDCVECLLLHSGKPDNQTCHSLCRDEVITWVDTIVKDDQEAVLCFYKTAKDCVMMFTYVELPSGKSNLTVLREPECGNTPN

Q: With `COCCN(CCCCc1ccc2c(n1)NCCC2)CC[C@H](Nc1ncnc2ccccc12)C(=O)O` [PLN-74809] as the molecule, how does the IC50 [1] read?
A: 6990 nM

Q: What about the “Fold selectivity (vs αvβ6)” value ([1]; ligand binding) of the same molecule?
A: 1226×

Q: What about the IC50 [2] of the same molecule?
A: > 10000 nM

Q: What about the “Fold selectivity (vs αvβ6)” value ([2]; ligand binding) of the same molecule?
A: > 1754×

Q: And the IC50 [3]?
A: 2540 nM

Q: What about the “Fold selectivity (vs αvβ6)” value ([3]; ligand binding) of the same molecule?
A: 445×

Q: What about the “Fold selectivity (vs αvβ6)” value ([4]; TGF-β activation) of the same molecule?
A: 1×

Q: What about the IC50 [4] of the same molecule?
A: 29.8 nM

Q: What about the “Fold selectivity (vs αvβ6)” value ([5]; TGF-β activation) of the same molecule?
A: 0.6×

Q: And the IC50 [5]?
A: 19.2 nM

Q: What about the IC50 [6] of the same molecule?
A: 15.7 nM

Q: And the “reduction in Smad2 phosphorylation” value [7]?
A: approximately 50%

Q: And the IC50 [8]?
A: 5.7 nM

Q: What about the “Fold selectivity (vs αvβ6)” value ([8]; ligand binding) of the same molecule?
A: 1×

Q: What about the IC50 [9] of the same molecule?
A: 23.5 nM

Q: What about the “selectivity over other αv integrins” value [10] of the same molecule?
A: ≥ 445 fold
